Four compounds from paper PMC4919555 (EBioMedicine, 2016) can be followed below.

pIC50: −log10 of the molar value. In brackets after ≈: the same amount, converted by molar mass. Read-outs that look alike come from different tables or passages of the source. Bounds are passed on as bounds.

The test system of data set [1] is panel of Gram-positive and Gram-negative organisms. Kind of data set: General antimicrobial activity assay. The format is cell-based. The settings on record: read-out: Antibacterial panel (MIC).
Data set [2] concerns M. tuberculosis H37Rv. Kind of data set: microbe, parasite or virus in culture. The format is cell-based. The settings on record: Mycobacterium tuberculosis, read-out: Mtb MIC.
The format of data set [3] is in vitro ADME. The settings on record: human liver microsomes.
Data set [4] relates to HepG2 mammalian cells. The format is cell-based. The settings on record: human.
In data set [5] the target is T1, InhA (Mycobacterium tuberculosis, UniProt P9WGR1). The conditions noted are these: steady-state competition experiments.
T1 sequence (P9WGR1 whole entry, looked up): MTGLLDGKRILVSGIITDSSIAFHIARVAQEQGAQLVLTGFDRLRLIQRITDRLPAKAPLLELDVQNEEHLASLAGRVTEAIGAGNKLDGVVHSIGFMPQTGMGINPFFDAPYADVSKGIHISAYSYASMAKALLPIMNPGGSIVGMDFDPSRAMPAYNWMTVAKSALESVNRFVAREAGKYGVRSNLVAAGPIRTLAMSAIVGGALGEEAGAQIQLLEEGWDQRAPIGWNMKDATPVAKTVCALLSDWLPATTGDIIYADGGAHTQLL
For data set [6], the target named is human FAS (Homo sapiens, UniProt P49327). Nature of the data set: Selectivity against human FAS. The format is biochemical.
Sequence of human FAS (P49327 whole entry): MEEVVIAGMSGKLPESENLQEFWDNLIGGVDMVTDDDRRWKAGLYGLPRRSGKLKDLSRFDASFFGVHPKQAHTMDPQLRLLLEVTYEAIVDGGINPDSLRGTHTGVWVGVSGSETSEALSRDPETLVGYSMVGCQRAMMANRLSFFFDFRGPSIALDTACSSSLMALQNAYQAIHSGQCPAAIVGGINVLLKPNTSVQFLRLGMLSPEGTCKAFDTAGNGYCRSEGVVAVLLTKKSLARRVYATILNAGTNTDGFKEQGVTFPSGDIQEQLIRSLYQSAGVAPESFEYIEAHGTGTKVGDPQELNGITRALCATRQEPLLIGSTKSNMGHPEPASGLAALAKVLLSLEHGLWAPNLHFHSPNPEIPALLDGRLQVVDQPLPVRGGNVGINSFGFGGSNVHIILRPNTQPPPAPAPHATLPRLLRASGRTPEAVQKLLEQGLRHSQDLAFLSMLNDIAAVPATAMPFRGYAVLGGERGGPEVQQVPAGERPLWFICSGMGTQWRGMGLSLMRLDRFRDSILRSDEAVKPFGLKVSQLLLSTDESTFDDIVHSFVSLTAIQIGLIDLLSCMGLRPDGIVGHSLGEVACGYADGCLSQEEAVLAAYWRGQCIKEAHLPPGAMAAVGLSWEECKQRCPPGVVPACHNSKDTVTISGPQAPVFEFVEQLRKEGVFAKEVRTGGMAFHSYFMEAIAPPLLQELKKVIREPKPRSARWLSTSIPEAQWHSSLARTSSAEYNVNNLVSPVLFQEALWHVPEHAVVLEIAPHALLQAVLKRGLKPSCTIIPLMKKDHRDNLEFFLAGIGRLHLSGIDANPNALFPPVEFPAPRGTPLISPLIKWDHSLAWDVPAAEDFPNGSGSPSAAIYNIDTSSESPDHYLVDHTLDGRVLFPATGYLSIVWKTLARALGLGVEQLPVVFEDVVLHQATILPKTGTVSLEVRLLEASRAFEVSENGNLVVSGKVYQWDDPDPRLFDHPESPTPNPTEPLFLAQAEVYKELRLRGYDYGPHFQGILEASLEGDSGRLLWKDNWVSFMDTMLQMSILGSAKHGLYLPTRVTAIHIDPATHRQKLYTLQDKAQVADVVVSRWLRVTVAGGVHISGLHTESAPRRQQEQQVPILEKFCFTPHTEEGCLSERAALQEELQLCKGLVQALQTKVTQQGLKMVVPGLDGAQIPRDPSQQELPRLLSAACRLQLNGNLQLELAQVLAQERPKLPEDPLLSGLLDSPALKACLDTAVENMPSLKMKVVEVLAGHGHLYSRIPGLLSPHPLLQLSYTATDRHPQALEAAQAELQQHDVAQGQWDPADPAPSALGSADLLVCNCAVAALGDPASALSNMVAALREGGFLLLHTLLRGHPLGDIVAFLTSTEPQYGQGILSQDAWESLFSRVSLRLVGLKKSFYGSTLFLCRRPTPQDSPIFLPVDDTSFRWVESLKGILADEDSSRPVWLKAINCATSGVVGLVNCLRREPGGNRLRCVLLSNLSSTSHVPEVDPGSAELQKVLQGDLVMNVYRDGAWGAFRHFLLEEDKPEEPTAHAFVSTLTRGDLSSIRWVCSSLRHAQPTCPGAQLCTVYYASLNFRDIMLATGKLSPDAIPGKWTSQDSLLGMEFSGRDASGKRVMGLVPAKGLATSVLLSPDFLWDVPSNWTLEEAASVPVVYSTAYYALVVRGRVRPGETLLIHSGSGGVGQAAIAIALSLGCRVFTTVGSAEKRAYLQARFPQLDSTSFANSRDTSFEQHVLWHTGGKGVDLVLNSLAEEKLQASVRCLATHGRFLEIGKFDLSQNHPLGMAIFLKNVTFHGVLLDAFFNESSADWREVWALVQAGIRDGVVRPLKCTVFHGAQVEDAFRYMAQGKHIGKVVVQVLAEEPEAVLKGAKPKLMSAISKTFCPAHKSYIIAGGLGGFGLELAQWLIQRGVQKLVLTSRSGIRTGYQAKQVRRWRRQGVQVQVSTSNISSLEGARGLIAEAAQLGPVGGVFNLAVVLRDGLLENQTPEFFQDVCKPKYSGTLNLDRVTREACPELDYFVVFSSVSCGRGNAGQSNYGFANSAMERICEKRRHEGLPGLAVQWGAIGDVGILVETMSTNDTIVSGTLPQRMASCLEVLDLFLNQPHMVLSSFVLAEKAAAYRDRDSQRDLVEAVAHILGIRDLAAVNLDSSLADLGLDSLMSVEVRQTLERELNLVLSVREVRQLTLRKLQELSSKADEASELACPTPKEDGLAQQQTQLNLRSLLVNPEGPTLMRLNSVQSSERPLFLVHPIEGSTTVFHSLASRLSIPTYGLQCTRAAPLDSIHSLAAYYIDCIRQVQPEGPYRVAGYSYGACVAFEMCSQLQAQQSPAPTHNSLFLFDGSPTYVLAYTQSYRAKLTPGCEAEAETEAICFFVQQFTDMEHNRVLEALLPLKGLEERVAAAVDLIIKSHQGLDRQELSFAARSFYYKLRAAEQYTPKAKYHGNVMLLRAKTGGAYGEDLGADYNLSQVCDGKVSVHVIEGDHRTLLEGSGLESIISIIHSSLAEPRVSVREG
Data set [7] can be described thus: physchem. It is filed as physicochemical. The conditions noted are these: pH 7.4.
Data set [8] is classed as in vitro ADME. The settings on record: mouse liver microsomes.
Data set [9] can be described thus: in vivo. The conditions noted are these: female, C57BL/6j, mouse; for Vd / clearance / half-life: iv; for Cmax / Tmax: po.
The subject of data set [10] is M. bovis BCG. It is filed as cell-based.
The conditions of data set [11]: mice.
The target of data set [12] is T1, InhA. Nature of the data set: biochemical.
Data set [13] addresses CYP 3A4 (Homo sapiens, UniProt P08684). Nature of the data set: biochemical.
For data set [14], the target named is hERG potassium channel (Homo sapiens, UniProt Q12809). Nature of the data set: cell-based.
Sequence of hERG potassium channel (Q12809 whole entry): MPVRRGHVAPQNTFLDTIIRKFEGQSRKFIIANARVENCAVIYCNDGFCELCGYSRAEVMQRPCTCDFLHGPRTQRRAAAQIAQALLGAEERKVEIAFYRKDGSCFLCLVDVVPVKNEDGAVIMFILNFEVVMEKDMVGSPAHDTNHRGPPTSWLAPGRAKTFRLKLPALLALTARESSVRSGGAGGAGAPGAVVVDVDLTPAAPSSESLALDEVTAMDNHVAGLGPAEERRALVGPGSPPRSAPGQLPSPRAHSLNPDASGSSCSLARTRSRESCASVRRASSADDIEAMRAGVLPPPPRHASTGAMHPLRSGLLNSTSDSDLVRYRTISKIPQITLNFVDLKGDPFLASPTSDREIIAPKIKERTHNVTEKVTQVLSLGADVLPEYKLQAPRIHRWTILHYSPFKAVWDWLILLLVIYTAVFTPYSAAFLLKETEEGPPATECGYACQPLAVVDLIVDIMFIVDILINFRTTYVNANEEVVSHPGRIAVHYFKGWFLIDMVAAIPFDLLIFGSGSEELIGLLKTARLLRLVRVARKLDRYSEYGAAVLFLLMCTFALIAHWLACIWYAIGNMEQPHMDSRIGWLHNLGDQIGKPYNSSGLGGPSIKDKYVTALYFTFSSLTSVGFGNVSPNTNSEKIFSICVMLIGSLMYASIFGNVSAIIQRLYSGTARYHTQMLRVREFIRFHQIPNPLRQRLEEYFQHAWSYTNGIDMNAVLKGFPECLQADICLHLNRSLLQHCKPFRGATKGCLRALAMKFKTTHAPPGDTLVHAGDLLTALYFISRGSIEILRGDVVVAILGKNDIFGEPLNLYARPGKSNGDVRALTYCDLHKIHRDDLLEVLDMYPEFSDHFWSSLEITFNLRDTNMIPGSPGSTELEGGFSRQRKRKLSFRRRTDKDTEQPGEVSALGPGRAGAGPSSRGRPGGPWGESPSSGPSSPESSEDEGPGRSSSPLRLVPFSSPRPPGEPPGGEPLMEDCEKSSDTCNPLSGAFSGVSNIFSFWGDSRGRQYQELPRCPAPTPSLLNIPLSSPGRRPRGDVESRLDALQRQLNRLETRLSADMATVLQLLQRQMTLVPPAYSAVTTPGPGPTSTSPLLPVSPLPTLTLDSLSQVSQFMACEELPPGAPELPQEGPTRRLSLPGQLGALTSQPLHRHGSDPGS
For data set [15] the following is noted: genetic toxicity.
The test system of data set [16] is GFP expressing MTB. Nature of the data set: Single-cell time-lapse imaging in microfluidic device. The format is cell-based, M. tuberculosis.
Data set [17] is classed as in vivo, C57BL/6 mice. The settings on record: mice.
For data set [18], the system named is M. tuberculosis H37Rv. Nature of the data set: microbe, parasite or virus in culture. The format is cell-based. The settings on record: Mycobacterium tuberculosis, read-out: Mtb intracell MIC.
Data set [19] deals with Memb.; Nucleus; Mitoch. It is filed as cell-based.
For data set [20], the system named is M. tuberculosis H37Rv. The settings on record: acute model.
In data set [21] the test system is M. tuberculosis. The conditions noted are these: chronic model, 25 mg/kg, 2-month treatment.
The mark [22] stands for this setting: 5 μM, propidium iodide end point.

Sequence of CYP 3A4 (P08684 whole entry): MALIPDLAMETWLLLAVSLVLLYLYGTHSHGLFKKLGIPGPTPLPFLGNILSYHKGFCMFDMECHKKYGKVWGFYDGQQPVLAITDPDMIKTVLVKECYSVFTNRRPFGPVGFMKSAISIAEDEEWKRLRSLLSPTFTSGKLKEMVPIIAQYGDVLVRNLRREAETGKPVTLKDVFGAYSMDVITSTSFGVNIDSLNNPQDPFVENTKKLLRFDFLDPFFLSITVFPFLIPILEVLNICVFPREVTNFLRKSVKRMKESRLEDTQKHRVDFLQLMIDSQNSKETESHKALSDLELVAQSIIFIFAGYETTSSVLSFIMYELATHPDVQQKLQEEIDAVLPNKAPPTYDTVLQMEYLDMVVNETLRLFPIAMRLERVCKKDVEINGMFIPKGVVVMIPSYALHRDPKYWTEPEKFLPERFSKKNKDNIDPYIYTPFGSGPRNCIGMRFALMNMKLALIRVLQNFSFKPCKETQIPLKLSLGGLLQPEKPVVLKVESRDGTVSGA

As a reminder, the solubility is the concentration that dissolves in the medium under given conditions. High values mean much dissolved substance, low ones little dissolved substance. A word on the Vd: it is a proportionality between amount in the body and measured concentration, not a real space. A low value points to confinement near the circulation. A word on the clearance: it is a measure of how efficiently the substance is removed, as volume per time. A high value points to efficient removal. One may read the half-life as the time needed for the level to fall by half in the phase considered. A word on the Cmax: it is the highest concentration seen after dosing. For orientation: Tmax means the time from dosing to the highest level. As usually defined, the pIC50 is −log10 of the IC50, conventionally taken in molar units. Read a low pIC50 as a large IC50. As to `Cc1ccn(C(C)c2nnc(Nc3ccn(Cc4c(F)cccc4Cl)n3)s2)n1` (stereo not shown) [GSK613, N-(1-(2-chloro-6-fluorobenzyl)-1H-pyrazol-3-yl)-5-(1-(3-methyl-1H-pyrazol-1-yl)ethyl)-1,3,4-thiadiazol-2-amine], the MIC in data set [1] was no less than 64 µg/mL. The MIC in data set [2] was no more than 1 µM. For the same compound, the “In vitro Cli human” value in data set [3] came out at 2.9 mL/min/g. Besides, the “HepG2 cytotoxicity Tox 50” value in data set [4] was greater than 100 µM. For the same compound, in data set [5], the “Mode of inhibition versus NADH” value was “uncompetitive with NADH” and the “Mode of inhibition versus fatty acid substrate” value is listed as “competes with the fatty acid substrate”. Moreover, the “Activity against human FAS” value in data set [6] is “inactive”. The compound further registered a solubility in data set [7] of 10 µM (≈ 4.18 µg/mL). Further, the “In vitro Cli mouse” value in [8] turned out to be 11.9 mL/min/g. In [9] (0.5 mg/kg), this compound gave a Vd of 2.5 L/kg, a clearance of 157 mL/min/kg and a half-life of 18 min. In [9] (50 mg/kg), the peak level (Cmax) was 94.3 ng/mL and the Tmax came out at 45 min. For the same compound, the “Shift in MIC in strains overexpressing the target” value in data set [10] is no less than 4 fold. In addition, the “DNAUC (dose normalized exposure)” value in [11] (Table 1 hits) turned out to be 5 ng·h/ml per mg/kg. The compound further showed a pIC50 in data set [12] of 8.15.

In the case of `Cc1csc([C@](C)(O)c2nnc(Nc3ccn(Cc4csc(C)n4)n3)s2)n1` [GSK693, (S)-1-(4-methylthiazol-2-yl)-1-(5-((1-((2-methylthiazol-4-yl)methyl)-1H-pyrazol-3-yl)amino)-1,3,4-thiadiazol-2-yl)ethanol], the MIC in data set [2] and in [18] was 0.2 µM (≈ 0.0839 µg/mL) throughout. In addition, the pIC50 was 4.60 in data set [13] (CYP 3A4 IC50 VG, VG substrate); less than 4.30 in data set [13] (CYP 3A4 IC50 VR, VR substrate); less than 4.30 in data set [14]; 8.15 in data set [12]. For the same compound, the “In vitro Cli human” value in [3] is 0.2 mL/min/g. Moreover, in [4], the “HepG2 cytotoxicity Tox 50” value was greater than 50 µM. This compound also gave a solubility in data set [7] of 413 µM (≈ 173 µg/mL). For the same compound, the “In vitro Cli mouse” value in data set [8] came out at 2.1 mL/min/g. This compound also displayed a Vd in data set [9] (4 mg/kg) of 2.58 L/kg. In addition, in [9] (4 mg/kg), the clearance amounted to 83 mL/min/kg. For the same compound, in data set [9] (4 mg/kg), the half-life is 56.4 min. In addition, the maximum concentration (Cmax) in data set [9] (100 mg/kg) was determined as 37300 ng/mL. For the same compound, in data set [9] (100 mg/kg), the Tmax amounted to 25.2 min. Also, the Ames test result in data set [15] is “Negative”. Besides, the “Total fraction of cells undergoing lysis” value in data set [16] (5 μM GSK693 for 10 days, N = 32 microcolonies) is given as 53 ± 20%. Moreover, the “Regrowth after washout of the drug” value in data set [16] (5 μM for 10 days, washout 7 days) is recorded as “None of the intact bacteria exhibited regrowth”. For the same compound, the “Intact cells PI-positive after exposure” value in data set [16] (setting [22]) is “About 22%”. Moreover, the “Intact cells still able to exclude PI” value in data set [16] (setting [22]) worked out at 78%. For the same compound, in [17], the “Maximal no lethal dose (MNLD)” value was “higher than 1000 mg/kg”. For the same compound, in data set [19], the “Cell Health (Memb.; Nucleus; Mitoch. )” value was greater than 199.5 µM. The same compound gave a DNAUC in [11] (Table 3 lead) of 935.8 ng·h/ml per mg/kg. Also, the Bacterial load reduction in [20] (100 mg/kg oral) was 4 log10 colony forming units (CFU) per lung. Moreover, the “Clearance of bacilli (Log CFU)” value in data set [20] (oral 30, 100 and 300 mg/kg, P < 0.001) is listed as “significant clearance of bacilli compared with the controls”.

In the case of `COc1c(N2C[C@@H]3CCCN[C@@H]3C2)c(F)cc2c(=O)c(C(=O)O)cn(C3CC3)c12` [moxifloxacin, reference compound], the Bacterial load reduction in data set [20] (30 mg/kg) is on record as 4 log10 colony forming units (CFU) per lung.

With `NNC(=O)c1ccncc1` [INH, isoniazid], the “Clearance of bacilli (Log CFU)” value in data set [21] (P < 0.001) was “significant clearance of bacilli compared with the controls”; in [21] (P < 0.001, listed as isoniazid) it was “clear efficacy”. Besides, the “Total fraction of cells undergoing lysis” value in data set [16] (INH 0.5 µg/ml, N = 41 microcolonies) is on record as 42 ± 15%.
